Source: EP0565593B1, “REDUCING PESTICIDAL INTERACTIONS IN CROPS” (priority 1990, dated 1992)
Values joined by “and” are separate entries in the source; they are usually repeats but may differ in a detail not shown here. Equal values may be shown once.

Legend:
Type in all cases: in vivo
Corn = assay: Greenhouse test Procedure VI: biocide and antidote in furrow, herbicide PPI in cover layer (Examples 43-47, 59-61; Tables 42-46, 58-60); conditions: for safener efficacy, comparison: COUNTER 15G + PURSUIT/co-herbicides, Example 61; for safening: COUNTER 15G/PURSUIT interaction, Example 47; for % Inhibition Corn: Antidote + Biocide No. 1 in furrow
Source text: This procedure describes interaction among herbicide, biocide and antidote when the herbicide is incorporated in a soil cover layer and the biocide and the antidote are applied in a soil furrow containing crop seed before emergence of the crop. The soil and seeding depth were described in Procedure IV. A first container was designated as an untreated control, a second container was designated as a herbicide control, a third container was designated as a herbicide + biocide control and a fourth container as a herbicide + biocide + antidote test container. The biocide and antidote were formulated as granules. The biocide was applied to the soil furrows of the third and fourth containers at an application rate of 1.1 mg of active compound per cm of row. The antidote was applied to the soil furrow of the fourth container at an application rate of 0.37 mg of active compound per cm of row. A measured amount of the herbicide dispersed or dissolved in acetone was applied to a measured quantity of soil. The quantity of soil treated with the herbicide was thoroughly mixed to incorporate the herbicide. Samples of this soil were used to cover the seed beds of the second, third and fourth containers. For each test series, the seed bed of the first container was likewise covered by a soil layer not treated with herbicide and without biocide or antidote in the soil furrow.
The containers were then placed on a bench in a greenhouse. Watering was by subirrigation plus overhead irrigation after the plants emerged. All treatments were run in duplicate. Plant response was observed according to Procedure IV. Variations in this procedure will be noted in the examples.
In continuing tests to evaluate the variations of this invention, a series of tests were conducted to determine the efficacy of the above safeners in Examples 39-42 to alleviate corn injury induced by the interaction of various additional commercial sulfonylurea herbicides with COUNTER 15G insecticide. In this example, the tests were conducted according to Procedure VI above. In modifications of that procedure, herbicides were applied to soil samples as acetone/water suspensions, incorporated by shaking in a closed container, with subsamples used to cover furrow-treated 10.2 cm pots. Pots were subirrigated followed by overhead misting on days 6-10.
This example was designed to test the safening effect of those above safeners used in this test series to relieve corn injury by negative synergism induced by interaction of COUNTER 15G and three imidazolinone herbicides, i.e., imazaquin and imazapyr (used in the POE tests in Example 41) and AC 263222 (a.i. in CADRE® herbicide). As differing from the tests in Example 41, this test was a PPI test according to Procedure VI described above. Observation of test results (Table 43) were taken thirteen 913) days after in-furrow PPI preparation.
This example describes PPI tests to evaluate said test safeners in this series with analogs of the sulfonamide herbicides tested under POE herbicide application procedures described in Example 42. In these tests, conducted according to Procedure VI described above, Herbicide Nos. 20, 22 and 24 were applied PPI with the insecticide and antidote. Observations of tests results were made thirteen days after PPI initiation.
An additional three (3) sulfonamide herbicide analogs were tested simultaneously and under the same conditions described in Example 45.
Another test of this invention involved the safening effects of the safeners in this series against negative synergy inducted by the interaction of COUNTER 15G and a sulfonylurea herbicide (OUST®), Herbicide No. 13, and PURSUIT, an imidazolinone herbicide, No. 6. Test conditions were the same as those in Examples 43-46. Other procedures for applying herbicidal formulations are as described in Example 42. […]

cotton (COTT) = assay: Multi-crop greenhouse test, biocide, herbicide and safener applied to soil covers (Examples 65, 66; Tables 64, 65); parameters: inhibition: dose or concentration left out as unconfirmed; conditions: Gossypium hirsutum, soil; for inhibition at 18 g/ha: Herb. No. 1 0.018 Kg/Ha alone; for inhibition at 70 g/ha: Herb. No. 1 0.07 Kg/Ha alone; for inhibition at 280 g/ha: Herb. No. 1 0.28 Kg/Ha alone
Procedure: Tests according to this invention in various crops indicate widespread application of the invention. In Examples 62-66 below are described tests with a variety of herbicides contacted with COUNTER® 15G in the presence and absence of MON-7400 (Antidote No. 12); MON-13900 (No. 1); MON-4660 (No. 16) and flurazole (No. 16). Those tests were conducted according to Procedures IV or V described above and illustrated further in other foregoing examples. Plants used in all tests were, for crops (as abbreviated in parentheses); cotton (COTT); soybean (SOBE); CORN, grain sorghum (GRSO); wheat (WHEA) and RICE, and the weeds giant foxtail (GIFT) and velvetleaf (VELE). The data in the tables below represent averages of two replications.
In this test the crops and weeds were planted 1.3 cm deep in 13.7 cm X 27.7 cm pans containing Dupo silt loam soil. The test safeners were applied in acetone solution and COUNTER 15G as dry granules to soil cover layers and incorporated by shaking in a bag. Treated cover layers were placed on seeded pans which were transferred to greenhouse benches and subirrigated. Herbicide was applied POE six (6) days after PPI initiation and observations of plant injury made ten (10) days later; results are shown in Table 61. The herbicide used in this example was BEACON (No. 8).
In another test in the several crops and weeds used in this test series, the herbicidal component was MON-12000 (No. 1); the other components were the same. the procedure used in this test was the same as that described in Example 62, modified to use a light overhead irrigation (about 0.32 cm/day) during days 4-7 of the test.
In yet another test in this series, XRD-498 (Herbicide No. 21) was used as the herbicidal component in contact with COUNTER 15G in the presence of the above safeners. The various components of the system (biocide, herbicide and safener) were applied concurrently to soil covers of the seeded plants.

Giant foxtail (GIFT) = assay: whole plant or invertebrate; conditions: for inhibition at 140 g/ha: Setaria faberi, iv, 312 h

CC1(C)OC(c2ccco2)CN1C(=O)C(Cl)Cl (stereo not shown) [Antidote No. 1, Oxazolidine, 3-(dichloroacetyl)-2,2-dimethyl-5-(2-furanyl)-]
safener efficacy, comparison (Corn): more effective than flurazole or MON-4660 | safening (Corn): good activity

O=C(OCc1ccccc1)c1sc(Cl)nc1C(F)(F)F [Antidote No. 7, 5-Thiazolecarboxylic acid, 2-chloro-4-(trifluoromethyl)-, (phenylmethyl) ester]
safening (Corn): less effective than the other safeners

COC(=O)COC(c1ccccc1)c1ccccc1 [Antidote No. 12, Acetic acid, (diphenylmethoxy)-, methyl ester]
safener efficacy, comparison (Corn): more effective than flurazole or MON-4660 | safener efficacy (Corn; COUNTER 15G + XRD-498/co-herbicide mixture, Example 60): most effective safener | safening (Corn): good activity

COC(=O)c1c(Cl)nn(C)c1S(=O)(=O)NC(=O)Nc1nc(OC)cc(OC)n1 [Herbicide No. 1, N-[(4,6-dimethoxypyrimidin-2-yl)aminocarbonyl]-3-chloro-4-methoxycarbonyl-5-sulfonamide, reference compound]
inhibition (cotton (COTT); Table 64, Herb. No. 1 0.018 Kg/Ha + Biocide No. 1 8.96 Kg/Ha): 15% | inhibition at 18 g/ha (cotton (COTT); Table 64): 10% | inhibition (cotton (COTT); Table 64, Herb. No. 1 0.07 Kg/Ha + Biocide No. 1 8.96 Kg/Ha): 0% | inhibition at 70 g/ha (cotton (COTT); Table 64): 20% | inhibition (cotton (COTT); Table 64, Herb. No. 1 0.28 Kg/Ha + Biocide No. 1 8.96 Kg/Ha): 55% | inhibition at 280 g/ha (cotton (COTT); Table 64): 60% | inhibition (cotton (COTT); Table 65, Herb. No. 1 0.018 Kg/Ha + Biocide No. 1 8.96 Kg/Ha): 0% | inhibition at 18 g/ha (cotton (COTT); Table 65): 0% | inhibition (cotton (COTT); Table 65, Herb. No. 1 0.07 Kg/Ha + Biocide No. 1 8.96 Kg/Ha): 20% | inhibition at 70 g/ha (cotton (COTT); Table 65): 20% | inhibition (cotton (COTT); Table 65, Herb. No. 1 0.28 Kg/Ha + Biocide No. 1 8.96 Kg/Ha): 75% | inhibition at 280 g/ha (cotton (COTT); Table 65): 40% | % Inhibition GIFT (Giant foxtail (GIFT); Herbicide No. 1 0.0175 Kg/Ha PPI alone, Table 19): 15% | % Inhibition GIFT (Giant foxtail (GIFT); Herbicide No. 1 0.0175 Kg/Ha PPI alone, Table 20): 0% | % Inhibition GIFT (Giant foxtail (GIFT); Herbicide No. 1 0.0175 Kg/Ha PPI alone, Table 21): 0% | % Inhibition GIFT (Giant foxtail (GIFT); Herbicide No. 1 0.0175 Kg/Ha PPI alone, Table 22): 0% | inhibition at 140 g/ha (Giant foxtail (GIFT); Herb. No. 1 0.14 kg/Ha alone, PPI, 13 days after planting): 30% | inhibition at 140 g/ha (Giant foxtail (GIFT); Table 51, Herbicide No. 1 0.14 Kg/Ha, where applied Biocide No. 8 8.96 kg/Ha and antidote 4.48 Kg/Ha, all PPI, observed 13 days after treatment): 60% | % Inhibition GIFT (Giant foxtail (GIFT); in vivo): 60% and 65% and 80%

N#CCOc1ccc(Cl)c2cccnc12 [compound 33]
% Inhibition Corn (Corn; Herbicide No. 6 0.14 Kg/Ha PPI): 20% | % Inhibition Corn (Corn; Herbicide No. 11 0.0044 Kg/Ha PPI): 20% | % Inhibition Corn (Corn; Herbicide No. 12 0.0044 Kg/Ha PPI): 20% | % Inhibition Corn (Corn; Herbicide No. 13 0.0011 Kg/Ha PPI): 40% | % Inhibition Corn (Corn; Herbicide No. 13 0.0022 Kg/Ha PPI): 90% | % Inhibition Corn (Corn; Herbicide No. 14 0.07 Kg/Ha PPI): 10% | % Inhibition Corn (Corn; Herbicide No. 16 0.07 Kg/Ha PPI, 13 days): 35% | % Inhibition Corn (Corn; Herbicide No. 17 0.14 Kg/Ha PPI, 13 days): 20% | % Inhibition Corn (Corn; Herbicide No. 18 0.04 Kg/Ha PPI, 13 days): 5% | % Inhibition Corn (Corn; Herbicide No. 20 1.12 Kg/Ha PPI, 13 days): 50% | % Inhibition Corn (Corn; Herbicide No. 22 0.28 Kg/Ha PPI, 13 days): 5% | % Inhibition Corn (Corn; Herbicide No. 24 0.14 Kg/Ha PPI, 13 days): 40% | % Inhibition Corn (Corn; Herbicide No. 25 0.14 Kg/Ha PPI, 13 days): 20% | % Inhibition Corn (Corn; Herbicide No. 26 2.24 Kg/Ha PPI, 13 days): 10% | % Inhibition Corn (Corn; Herbicide No. 28 0.04 Kg/Ha PPI, 13 days): 30%
